Measured values: patent EP0993306B1, “PERFLUOROALKYLATED OLIGOMER COMPOUNDS, PROCESS FOR PREPARING THE SAME AND THEIR USE IN NMR DIAGNOSIS” (SCHERING AKTIENGESELLSCHAFT, priority 1997, dated 1999)

How the values were obtained:
[1] = Diffusibility: in vivo comparison with an intravasal and an extracellular contrast agent, ligated renal vessels; conditions: for Prozentsatz der im Blutraum verbliebenen Dosis: i.v. 20 µmol/kg each, ligated renal vessels, relative to Verbindung 2 set as 100 %
Procedure: Als Versuchstiere dienten drei 250 g schwere, männliche (Schering-SPF-) Ratten. Den Tieren wurden die Nierengefäße abgebunden, um eine renale Eliminierung zu verhindern und bei angenommener vernachlässigbarer faekaler Eliminierung ein Maß für Diffusibilität der erfindungsgemäßen Formulierung aus dem Blut in das umgebende Gewebe zu erhalten. Je Tier wurden 0.5 ml (jeweils 10 mmol/L) der folgenden Kontrastmittel-Lösung intravenös appliziert: Gemisch aus je 1 Teil der Verbindung des Beispiels 1g, im folgenden Verbindung 1 genannt, des intravasalen Kontrastmittels Eu-DTPA-Albumin, im folgenden Verbindung 2 genannt, und des extrazellulären Kontrastmittels Dy-DTPA, im folgenden Verbindung 3 genannt. Über einen Katheter in der Arteria carotis communis wurden Blutproben zu folgenden Zeitpunkten entnommen: 15, 30, 45, 60, 90 sec, 3, 5, 10, 15 min p.i. In den gewonnenen Blutproben wurden jeweils parallel die Konzentrationen an Gadolinium (Gd), Europium (Eu) und Dysprosium (Dy) mittels Atomemissionsspektrometrie (ICP-AES) gemessen. Der im Blutraum verbliebene Anteil des intravasalen Kontrastmittels Verbindung 2 (Eu) wurde als 100 % gesetzt. Der im Blutraum verbliebene Anteil der erfindungsgemäßen Formulierung Verbindung 1 (Gd) und der Verbindung 3 (Dy, extrazelluläre Vergleichssubstanz) konnte durch die unterschiedliche Markierung im gleichen Tier verglichen werden und wurde prozentual ins Verhältnis zur Konzentration der Verbindung 2 gesetzt. Damit liefern diese Daten Angaben über den Verbleib der Verbindungen im Intravasalraum.

[2] = Contrast-enhanced MR angiography (3D FLASH, 2.0 Tesla); type: in vivo, Ratten (Han. Wistar); conditions: directly after single i.v. 50 µmol/kg or 100 µmol/kg; 3 D FLASH 10/2.6/40°
Procedure: Die Untersuchungen zur kontrastmittelgetützten MR Angiographie wurden an einem experimentellen MRT System (SISCO SIS 85, 2.0 Tesla) mit einer 3 D FLASH Technik (10/2.6/40°) durchgeführt. Um die Wirksamkeit von Kontrastmitteln zur Darstellung von Blutgefäßen zu bestimmen, wurden narkotisierte (Rompun® + Ketavet®,1 + 1, v/v; ≈ 1 ml pro kg Körpergewicht, i. m.) Ratten (Han. Wistar; ≈ 200 g Körpergewicht) MR-tomographisch untersucht.
Figur 4 zeigt Abbildungen dieses Experiments. Die MIP (maximal intensity projection)-Bilder wurden berechnet aus den 3 D FLASH Experimenten vor (links) und direkt nach einmaliger i. v. Applikation von 50 µmol / kg (mitte) bzw. 100 µmol /kg (rechts) der Substanz aus Beispiel 1 g.

[3] = rat, in vivo, iv, 100 umol/kg
Source text: Hierfür wurde nach einmaliger intravenöser Applikation (via einer Caudalvene) der Substanzen (Dosis: ≈ 100 µmol Metall pro kg Körpergewicht) die Substanzkonzentration im Blut (basierend auf dem Gd- bzw. Dy-Gehalt) über einen Zeitraum bis zu 120 Minuten p. i. mittels ICP-AES bestimmt. Die pharmakokinetischen Parameter: Verteilungsvolumen (Vss), Gesamtclearance (CLtot) und Eliminationshalbwertszeit (tb) wurden mit einem speziellen Computerprogramm (TOPFIT 2.0; Thomae, Schering, Gödecke) berechnet, wobei ein Zwei-Kompartment-Distributionsmodell zu Grunde gelegt wurde.
Die Gd- und Dy-Gehalte im Blut wurden mittels ICP-AES bestimmt.
Hierfür wurde nach einmaliger intravenöser Applikation (via einer Caudalvene) der Substanzen (Dosis: ≈ 100 µmol Metall pro kg Körpergewicht) die Substanzkonzentration im Blut (basierend auf dem Metallgehalt) über einen Zeitraum bis zu 120 Minuten p. i. mittels ICP-AES bestimmt. Die pharmakokinetischen Parameter: Verteilungsvolumen (Vss), Gesamtclearance (CLtot) und Eliminationshalbwertszeit (tb) wurden mit einem speziellen Computerprogramm (TOPFIT 2.0; Thomae, Schering, Gödecke) berechnet, wobei ein Zwei-Kompartment-Distributionsmodell zu Grunde gelegt wurde.

[4] = T1 relaxivity in human plasma (Minispec pc 20); type: physicochemical

## 1,4,7-Tris {1,4,7-tris(N-carboxylatomethyl)-10-(N-1-methyl-3,6-diaza-2,5,8-trioxooctan-1,8-diyl)-1,4,7,10-tetraazacyclododecan, Gd-Komplex}-10-(N-2H,2H,4H,4H,5H,5H-3-oxa-perfluor-tridecanoyl)-1,4,7,10-tetraazacyclododecan [Beispiel 1g]
[1]; 30 sec p.i.
  Prozentsatz der im Blutraum verbliebenen Dosis: 84%
[1]; 3 min p.i.
  Prozentsatz der im Blutraum verbliebenen Dosis: 62%
[1]; 10 min p.i.
  Prozentsatz der im Blutraum verbliebenen Dosis: 44%
[1]; early time points
  Blutkonzentrationen verglichen mit dem extrazellulären Kontrastmittel: deutlich höhere Blutkonzentrationen
[1]; first minute p.i.
  Diffusion in das Interstitium im Vergleich zu Eu-DTPA-BSA (Verbindung 2): nur geringfügig schneller
[1]; whole duration of the experiment
  Diffusion in das Interstitium im Vergleich zu Dy-DTPA (Verbindung 3): langsamer
[2]
  Signalanstieg in den Blutgefäßen (MIP-Bilder): ausgeprägter Signalanstieg in den Blutgefäßen und eine deutliche Kontrastierung zum Normalgewebe
[3]
  CL tot: 0.41 mL/min/kg
  Vss: 0.09 L/kg
[4]; 0.47 T, 20 MHz, 37 °C, Humanplasma, normalised to one metal atom
  R^1 (T^1-Relaxivity): 19,5 L/mmol * sec
[4]; plasma
  Relaxivity (r1, Plasma): ≈ 19.5 1*mmol^- ^1*s^-1
